Values after ≈ are worked out from the molar mass of the structure shown.
Columns and labels:
[1] = system: Mycobacterium tuberculosis; experiment: Antitubercular activity against dormant Mycobacterium tuberculosis H37Ra after 12 days by XTT-Menadione assay; format: functional, organism-based; details: 288 h
[2] = Cytotoxicity against human THP1 cells after 5 days by MTT assay; format: cell-based, THP-1; details: for IC50: Homo sapiens, THP-1, 120 h; for MCC at 120 h: human, THP1 cells, read-out: MIC
[3] = Cytotoxicity against human PANC1 cells after 5 days by MTT assay; format: cell-based, PANC-1; details: for IC50: Homo sapiens, PANC-1, 120 h; for MCC at 120 h: human, PANC1 cells, read-out: MIC
[4] = (§1) Cytotoxicity against human A549 cells after 3 days by MTT assay; format: cell-based; details: human, A549 cells; read-out: MIC
A549 = experiment: as §1; format: cell-based; details: Homo sapiens, A549, 72 h
[5] = (§2) Cytotoxicity against human MCF7 cells after 4 days by MTT assay; format: cell-based; details: human, MCF7 cells; read-out: MIC
MCF7 = experiment: as §2; format: cell-based; details: Homo sapiens, MCF7, 96 h
[6] = system: Mycobacterium tuberculosis; experiment: Antitubercular activity against dormant Mycobacterium tuberculosis H37Ra at 30 ug after 12 days by XTT-Menadione assay; format: functional
[7] = system: Mycobacterium tuberculosis; experiment: Antitubercular activity against dormant Mycobacterium tuberculosis H37Ra at 10 ug after 12 days by XTT-Menadione assay; format: functional
[8] = system: Mycobacterium tuberculosis; experiment: Antitubercular activity against dormant Mycobacterium tuberculosis H37Ra at 3 ug after 12 days by XTT-Menadione assay; format: functional
[9] = system: Mycolicibacterium smegmatis; experiment: Antitubercular activity against dormant Mycobacterium smegmatis MC2 155 at 30 ug after 12 days by XTT-Menadione assay; format: functional, str. MC2 155
[10] = system: Mycolicibacterium smegmatis; experiment: Antitubercular activity against dormant Mycobacterium smegmatis MC2 155 at 10 ug after 12 days by XTT-Menadione assay; format: functional, str. MC2 155
[11] = system: Mycolicibacterium smegmatis; experiment: Antitubercular activity against dormant Mycobacterium smegmatis MC2 155 at 3 ug after 12 days by XTT-Menadione assay; format: functional, str. MC2 155
Escherichia coli [12] = experiment: Antibacterial activity against Escherichia coli at 30 ug after 8 hrs; format: functional
Escherichia coli [13] = experiment: Antibacterial activity against Escherichia coli at 10 ug after 8 hrs; format: functional
Escherichia coli [14] = experiment: Antibacterial activity against Escherichia coli at 3 ug after 8 hrs; format: functional
Pseudomonas fluorescens [15] = experiment: Antibacterial activity against Pseudomonas fluorescens at 30 ug after 8 hrs; format: functional
Pseudomonas fluorescens [16] = experiment: Antibacterial activity against Pseudomonas fluorescens at 10 ug after 8 hrs; format: functional
Pseudomonas fluorescens [17] = experiment: Antibacterial activity against Pseudomonas fluorescens at 3 ug after 8 hrs; format: functional
Staphylococcus aureus [18] = experiment: Antibacterial activity against Staphylococcus aureus at 30 ug after 12 hrs; format: functional
Staphylococcus aureus [19] = experiment: Antibacterial activity against Staphylococcus aureus at 10 ug after 12 hrs; format: functional
Staphylococcus aureus [20] = experiment: Antibacterial activity against Staphylococcus aureus at 3 ug after 12 hrs; format: functional
Bacillus subtilis [21] = experiment: Antibacterial activity against Bacillus subtilis at 30 ug after 12 hrs; format: functional
Bacillus subtilis [22] = experiment: Antibacterial activity against Bacillus subtilis at 10 ug after 12 hrs; format: functional
Bacillus subtilis [23] = experiment: Antibacterial activity against Bacillus subtilis at 3 ug after 12 hrs; format: functional

Row | SMILES | IC50 [1] | MIC [1] | inhibition (INH) [6] | inhibition (INH) [7] | inhibition (INH) [8] | inhibition (INH) [9] | inhibition (INH) [10] | inhibition (INH) [11] | inhibition (INH) (Escherichia coli [12]) | inhibition (INH) (Escherichia coli [13]) | inhibition (INH) (Escherichia coli [14]) | inhibition (INH) (Pseudomonas fluorescens [15]) | inhibition (INH) (Pseudomonas fluorescens [16]) | inhibition (INH) (Pseudomonas fluorescens [17]) | inhibition (INH) (Staphylococcus aureus [18]) | inhibition (INH) (Staphylococcus aureus [19]) | inhibition (INH) (Staphylococcus aureus [20]) | inhibition (INH) (Bacillus subtilis [21]) | inhibition (INH) (Bacillus subtilis [22]) | inhibition (INH) (Bacillus subtilis [23]) | other results
1 | Nc1nccnc1C(=O)NN1C(=O)CSC1c1ccccc1 (centres undefined) | 0.909 µg/mL (≈ 2.88 µM) | 28 µg/mL (≈ 88.9 µM) | 91.57% | 71.09% | 70.02% | -60.9565% | 52.56% | 43.05% | 8.78% | -71.2% | -94.8% | 30.72% | 3.29% | 25.98% | -1.45% | 32.35% | -20.13% | 19.82% | -6.1% | -4.3% | IC50 [2]: 89.6 µg/mL (≈ 284 µM); MCC at 120 h [2]: > 100 µg/mL; IC50 [3]: > 100 µg/mL; MCC at 120 h [3]: > 100 µg/mL; MCC at 72 h [4]: > 100 µg/mL; IC50 (A549): 77 µg/mL (≈ 244 µM); MCC at 96 h [5]: > 100 µg/mL; IC50 (MCF7): 81.3 µg/mL (≈ 258 µM)
2 | O=C(NN1C(=O)CSC1c1ccc(O)cc1)c1cnccn1 (centres undefined) | – | – | 53.37% | 45.24% | 40.52% | 45.5719% | 31.9215% | 28.83% | 39.38% | 49.76% | 41.07% | 27.67% | 5.678% | 9.87% | 30.2% | 16.31% | 24.23% | 1.8% | -7.31% | -5.94% | –
3 | CCOc1cc([C@@H]2SCC(=O)N2NC(=O)c2cnc(C)cn2)ccc1O | 0.337 µg/mL (≈ 0.9 µM) | 26.6 µg/mL (≈ 70.9 µM) | 90.6% | 86.08% | 78.71% | 7.269% | 28.89% | 1.412% | 29.15% | 16.57% | -27.76% | 11.17% | 12.75% | 12.73% | 32.72% | -12.53% | -16.05% | 16.07% | 15.08% | 21.36% | IC50 [2]: > 100 µg/mL; MCC at 120 h [2]: > 100 µg/mL; IC50 [3]: > 100 µg/mL; MCC at 120 h [3]: > 100 µg/mL; MCC at 72 h [4]: > 100 µg/mL; IC50 (A549): > 100 µg/mL; MCC at 96 h [5]: > 100 µg/mL; IC50 (MCF7): > 100 µg/mL
4 | COc1cc([C@@H]2SCC(=O)N2NC(=O)c2cnc(C)cn2)ccc1O | 0.997 µg/mL (≈ 2.77 µM) | 27.9 µg/mL (≈ 77.3 µM) | 91.2% | 70.7% | 66.03% | -19.0256% | 33.4% | -19.102% | -53.27% | -54.14% | 33.04% | 47.41% | 33.16% | -2.64% | -0.17% | 23.58% | 42.47% | 19.67% | 8.59% | 14.34% | IC50 [2]: 86.9 µg/mL (≈ 241 µM); MCC at 120 h [2]: > 100 µg/mL; IC50 [3]: > 100 µg/mL; MCC at 120 h [3]: > 100 µg/mL; MCC at 72 h [4]: > 100 µg/mL; IC50 (A549): 62.3 µg/mL (≈ 173 µM); MCC at 96 h [5]: > 100 µg/mL; IC50 (MCF7): 70.2 µg/mL (≈ 195 µM)
5 | COc1ccc([C@H]2SCC(=O)N2NC(=O)c2nccnc2N)cc1OC | 0.718 µg/mL (≈ 1.91 µM) | 25.8 µg/mL (≈ 68.8 µM) | 90.99% | 70.88% | 50.37% | 31.62% | 35.96% | 50.59% | 4.659% | 50.22% | 70.93% | 41.19% | 22.77% | 30.31% | 34.19% | 6.63% | 26.84% | 9.92% | 22.5% | 8.28% | IC50 [2]: 85.4 µg/mL (≈ 228 µM); MCC at 120 h [2]: > 100 µg/mL; IC50 [3]: > 100 µg/mL; MCC at 120 h [3]: > 100 µg/mL; MCC at 72 h [4]: > 100 µg/mL; IC50 (A549): 80 µg/mL (≈ 213 µM); MCC at 96 h [5]: > 100 µg/mL; IC50 (MCF7): 86.2 µg/mL (≈ 230 µM)
6 | Cc1cnc(C(=O)NN2C(=O)CS[C@@H]2c2cccc([N+](=O)[O-])c2)cn1 | 4.29 µg/mL (≈ 11.9 µM) | 29 µg/mL (≈ 80.7 µM) | 91.39% | 56.26% | 48.93% | 19.6% | 20.19% | 57.26% | 70.21% | 53.08% | 47.15% | 42.75% | 33.6% | 20.43% | 17.56% | 33.4% | -1.03% | 4.11% | 0.21% | 3.26% | IC50 [2]: > 100 µg/mL; MCC at 120 h [2]: > 100 µg/mL; IC50 [3]: > 100 µg/mL; MCC at 120 h [3]: > 100 µg/mL; MCC at 72 h [4]: > 100 µg/mL; IC50 (A549): > 100 µg/mL; MCC at 96 h [5]: > 100 µg/mL; IC50 (MCF7): > 100 µg/mL
7 | Cc1cnc(C(=O)NN2C(=O)CS[C@@H]2c2ccc([N+](=O)[O-])cc2)cn1 | 0.528 µg/mL (≈ 1.47 µM) | 27.5 µg/mL (≈ 76.6 µM) | 91.72% | 73.66% | 72.31% | 10.44% | 42.01% | 57.99% | 62.08% | 37.74% | 56.92% | 22.82% | 7.48% | 26.73% | 13.12% | -8.13% | 9.39% | 13.11% | 22.68% | 21.45% | IC50 [2]: > 100 µg/mL; MCC at 120 h [2]: > 100 µg/mL; IC50 [3]: > 100 µg/mL; MCC at 120 h [3]: > 100 µg/mL; MCC at 72 h [4]: > 100 µg/mL; IC50 (A549): > 100 µg/mL; MCC at 96 h [5]: > 100 µg/mL; IC50 (MCF7): > 100 µg/mL
8 | CCOc1cc([C@H]2SCC(=O)N2NC(=O)c2nccnc2N)ccc1O | 3.46 µg/mL (≈ 9.22 µM) | 28.6 µg/mL (≈ 76.3 µM) | 91.26% | 65% | 48.5% | -15.9058% | 38.28% | 12.74% | -33.02% | -9.65% | -48.72% | 40.87% | 20.37% | -6.51% | 24.55% | -5.22% | 4.98% | 9.32% | -16.24% | 22.27% | IC50 [2]: 68.9 µg/mL (≈ 183 µM); MCC at 120 h [2]: > 100 µg/mL; IC50 [3]: > 100 µg/mL; MCC at 120 h [3]: > 100 µg/mL; MCC at 72 h [4]: > 100 µg/mL; IC50 (A549): 84.2 µg/mL (≈ 224 µM); MCC at 96 h [5]: > 100 µg/mL; IC50 (MCF7): 80.8 µg/mL (≈ 215 µM)

Reference: ChEMBL document CHEMBL3792312, “Synthesis and docking studies of pyrazine-thiazolidinone hybrid scaffold targeting dormant tuberculosis” (Bioorg Med Chem Lett, 2016)
